# Legend:
# [1] = system: HT-1080; assay: Modulatory profiling: Alamar Blue viability, lethal compound cotreated with death modulator (EC50, AUC); assay type: cell-based; parameters: AUC, modulator HT.3MA / AUC, modulator HT.ALLN / AUC HT.ATA / AUC HT.ActD / AUC HT.BHA / AUC HT.BHT / AUC HT.BocD / AUC HT.CHX / AUC HT.Co2+ / AUC HT.DPQ / AUC HT.EGTA / AUC HT.Lmim / AUC HT.NAD+ / AUC HT.Nec-1 / AUC HT.SP600125 / AUC HT.TLCK / AUC HT.U0126: unit not given beside the values; conditions: for AUC HT.ATA: HT-1080, modulator ATA; for AUC HT.ActD: HT-1080, modulator ActD; for AUC HT.BHA: HT-1080, modulator BHA; for AUC HT.BHT: HT-1080, modulator BHT; for AUC HT.BocD: HT-1080, modulator BocD; for AUC HT.CHX: HT-1080, modulator CHX; for AUC HT.Co2+: HT-1080, modulator Co2+; for AUC HT.CspA: HT-1080, modulator CspA; for AUC HT.DPQ: HT-1080, modulator DPQ; for AUC HT.EGTA: HT-1080, modulator EGTA; for AUC HT.Gd3+: HT-1080, modulator Gd3+; for AUC HT.LNAME: HT-1080, modulator LNAME; for AUC HT.Lmim: HT-1080, modulator Lmim; for AUC HT.NAD+: HT-1080, modulator NAD+; for AUC HT.NMMA: HT-1080, modulator NMMA; for HT.atoc (AUC) / HT.bCarotene (AUC) / HT.deferox (AUC) / HT.digoxin (AUC) / HT.trolox (AUC) / HT.zVAD (AUC): HT-1080; for HT.atoc (AUC): modulator atoc; for HT.bCarotene (AUC): modulator bCarotene; for HT.deferox (AUC): modulator deferox; for HT.digoxin (AUC): modulator digoxin; for HT.trolox (AUC): modulator trolox; for HT.zVAD (AUC): modulator zVAD; for AUC HT.BHA: reference of the scale not given here; for AUC HT.EGTA: reference of the scale not given here
# [2] = system: BJeLR; assay: as above; assay type: cell-based, human; parameters: AUC, modulator BJ.Gd3+ / AUC, modulator BJ.LNAME / AUC, modulator BJ.Lmin / AUC, modulator BJ.3MA / AUC, modulator BJ.ALLN / AUC, modulator BJ.Boc D / AUC, modulator BJ.CHX / AUC, modulator BJ.Co2+ / AUC, modulator BJ.Nec-1 / AUC, modulator BJ.Pepstatin / AUC, modulator BJ.TLCK / AUC, modulator BJ.atoc / AUC, modulator BJ.trolox / AUC, modulator BJ.zVAD: unit not given beside the values; conditions: BJeLR cells, modulatory profile value (AUC); for AUC, modulator BJ.3MA: lethal compound cotreated with modulator 3MA; for AUC, modulator BJ.ALLN: lethal compound cotreated with modulator ALLN; for AUC, modulator BJ.Boc D: lethal compound cotreated with modulator Boc D; for AUC, modulator BJ.CHX: lethal compound cotreated with modulator CHX; for AUC, modulator BJ.Co2+: lethal compound cotreated with modulator Co2+; for AUC, modulator BJ.DPQ: lethal compound cotreated with modulator DPQ; for AUC, modulator BJ.Gd3+: lethal compound cotreated with modulator Gd3+; for AUC, modulator BJ.LNAME: lethal compound cotreated with modulator LNAME; for AUC, modulator BJ.Lmin/NAD+: lethal compound cotreated with modulator Lmin/NAD+; for AUC, modulator BJ.Lmin: lethal compound cotreated with modulator Lmin; for AUC, modulator BJ.NAD+: lethal compound cotreated with modulator NAD+; for AUC, modulator BJ.NMMA: lethal compound cotreated with modulator NMMA; for AUC, modulator BJ.Nec-1: lethal compound cotreated with modulator Nec-1; for AUC, modulator BJ.Pepstatin: lethal compound cotreated with modulator Pepstatin; for AUC, modulator BJ.TLCK: lethal compound cotreated with modulator TLCK; for AUC, modulator BJ.3MA: reference of the scale not given here; for AUC, modulator BJ.ALLN: reference of the scale not given here; for AUC, modulator BJ.Boc D: reference of the scale not given here; for AUC, modulator BJ.CHX: reference of the scale not given here; for AUC, modulator BJ.Co2+: reference of the scale not given here; for AUC, modulator BJ.DPQ: reference of the scale not given here; for AUC, modulator BJ.Gd3+: reference of the scale not given here; for AUC, modulator BJ.LNAME: reference of the scale not given here; for AUC, modulator BJ.NAD+: reference of the scale not given here; for AUC, modulator BJ.NMMA: reference of the scale not given here; for AUC, modulator BJ.Nec-1: reference of the scale not given here; for AUC, modulator BJ.Pepstatin: reference of the scale not given here; for AUC, modulator BJ.TLCK: reference of the scale not given here
SMILES,AUC HT.ATA [1],AUC HT.ActD [1],AUC HT.BHA [1],AUC HT.BHT [1],AUC HT.BocD [1],AUC HT.CHX [1],AUC HT.Co2+ [1],AUC HT.CspA [1],AUC HT.DPQ [1],AUC HT.EGTA [1],AUC HT.Gd3+ [1],AUC HT.LNAME [1],AUC HT.Lmim [1],AUC HT.NAD+ [1],AUC HT.NMMA [1],HT.atoc (AUC) [1],HT.bCarotene (AUC) [1],HT.deferox (AUC) [1],HT.digoxin (AUC) [1],HT.trolox (AUC) [1],further results
Cc1cc(C)c2c(=O)n(CC(=O)NCCCN3CCN(c4ccccc4F)CC3)sc2n1 [CIL50],0.06518,−0.00775,0.006655,−0.06029,0.004017,−0.04825,−0.08688,−0.01271,−0.01588,−0.02244,−0.03877,0.01806,−0.00536,0.009799,0.004196,0.06547,0.01961,−0.04084,0.02124,−0.01565,"HT.zVAD (AUC) [1]: 0.02907; AUC, modulator BJ.3MA [2]: −0.001613; AUC, modulator BJ.ALLN [2]: −0.008924; AUC, modulator BJ.Boc D [2]: 0.03113; AUC, modulator BJ.CHX [2]: 0.1415; AUC, modulator BJ.Co2+ [2]: −0.0178; AUC, modulator BJ.DPQ [2]: −0.03869; AUC, modulator BJ.Gd3+ [2]: −0.02113; AUC, modulator BJ.LNAME [2]: 0.03227; AUC, modulator BJ.Lmin/NAD+ [2]: 0.01676; AUC, modulator BJ.Lmin [2]: 0.03123; AUC, modulator BJ.NAD+ [2]: −0.08482; AUC, modulator BJ.NMMA [2]: −0.004554; AUC, modulator BJ.Nec-1 [2]: −0.05683; AUC, modulator BJ.Pepstatin [2]: 0.003838; AUC, modulator BJ.TLCK [2]: −0.05225"
CC(C)C1CC(CCNCc2ccc3c(c2)OCO3)(c2ccccc2)CCO1 (stereo not drawn) [CIL51],0.003579,0.02697,−0.07965,−0.08488,−0.01458,0.08663,0.03908,0.00675,0.0109,0.04897,0.003288,0.01091,0.01293,0.04394,0.01562,0.05135,0.03796,0.004062,−0.03821,−0.01257,"HT.zVAD (AUC) [1]: 0.007799; AUC, modulator BJ.3MA [2]: 0.05908; AUC, modulator BJ.ALLN [2]: −0.2032; AUC, modulator BJ.Boc D [2]: −0.0008828; AUC, modulator BJ.CHX [2]: 0.1696; AUC, modulator BJ.Co2+ [2]: 0.06399; AUC, modulator BJ.DPQ [2]: 0.04077; AUC, modulator BJ.Gd3+ [2]: 0.03263; AUC, modulator BJ.LNAME [2]: −0.04145; AUC, modulator BJ.Lmin/NAD+ [2]: 0.03468; AUC, modulator BJ.Lmin [2]: −0.07413; AUC, modulator BJ.NAD+ [2]: −0.01737; AUC, modulator BJ.NMMA [2]: 0.003016; AUC, modulator BJ.Nec-1 [2]: 0.03451; AUC, modulator BJ.Pepstatin [2]: −0.06742; AUC, modulator BJ.TLCK [2]: −0.04421"
CN(C)CCNC(=O)c1cc2c(s1)-c1ccc(Cl)cc1SC2 [CIL55],0.05195,−0.0079,0.09593,0.04919,0.01568,−0.01039,0.1152,−0.007883,0.01405,0.04877,−0.01479,0.007171,0.07005,0.03996,0.004761,0.2074,0.001297,0.1108,−0.0491,0.1469,"HT.zVAD (AUC) [1]: 0.0266; AUC, modulator BJ.3MA [2]: 0.06354; AUC, modulator BJ.ALLN [2]: −0.04685; AUC, modulator BJ.Boc D [2]: −0.01499; AUC, modulator BJ.CHX [2]: 0.0373; AUC, modulator BJ.Co2+ [2]: 0.03522; AUC, modulator BJ.DPQ [2]: 0.01735; AUC, modulator BJ.Gd3+ [2]: 0.003555; AUC, modulator BJ.LNAME [2]: −0.02008; AUC, modulator BJ.Lmin/NAD+ [2]: 0.1924; AUC, modulator BJ.Lmin [2]: 0.08143; AUC, modulator BJ.NAD+ [2]: 0.02772; AUC, modulator BJ.NMMA [2]: −0.002759; AUC, modulator BJ.Nec-1 [2]: 0.09849; AUC, modulator BJ.Pepstatin [2]: 0.02873; AUC, modulator BJ.TLCK [2]: 0.07378"
O=C(Oc1ccc(Cl)c2cccnc12)c1ccco1 [CIL58],0.05141,0.02044,−0.03989,−0.1355,−0.02082,−0.05674,0.09509,0.06761,−0.005922,0.05184,−0.004674,−0.09982,−0.07257,−0.06539,−0.09083,0.03305,0.08558,0.08912,0.0229,−0.04791,"HT.zVAD (AUC) [1]: 0.02459; AUC, modulator BJ.3MA [2]: 0.03403; AUC, modulator BJ.ALLN [2]: 0.01846; AUC, modulator BJ.Boc D [2]: −0.007995; AUC, modulator BJ.CHX [2]: −0.04911; AUC, modulator BJ.Co2+ [2]: 0.2386; AUC, modulator BJ.DPQ [2]: 0.009922; AUC, modulator BJ.Gd3+ [2]: 0.02131; AUC, modulator BJ.LNAME [2]: −0.02811; AUC, modulator BJ.Lmin/NAD+ [2]: 0.02713; AUC, modulator BJ.Lmin [2]: −0.009172; AUC, modulator BJ.NAD+ [2]: 0.02238; AUC, modulator BJ.NMMA [2]: −0.05299; AUC, modulator BJ.Nec-1 [2]: 0.0983; AUC, modulator BJ.Pepstatin [2]: 0.07532; AUC, modulator BJ.TLCK [2]: 0.1505"
Cc1cccc(Cn2ncc(Cl)c(Cl)c2=O)c1 [CIL60],0.07052,0.04832,−0.0006407,−0.1303,−0.04051,0.112,−0.08003,−0.004831,0.02073,0.05296,−0.0163,0.004397,0.03464,0.01526,−0.01091,0.08708,0.04979,0.07702,−0.03602,−0.0265,"HT.zVAD (AUC) [1]: −0.009922; AUC, modulator BJ.3MA [2]: 0.06736; AUC, modulator BJ.ALLN [2]: −0.004197; AUC, modulator BJ.Boc D [2]: 0.02626; AUC, modulator BJ.CHX [2]: 0.1803; AUC, modulator BJ.Co2+ [2]: 0.03836; AUC, modulator BJ.DPQ [2]: 0.02057; AUC, modulator BJ.Gd3+ [2]: 0.02704; AUC, modulator BJ.LNAME [2]: −0.01542; AUC, modulator BJ.Lmin/NAD+ [2]: 0.05888; AUC, modulator BJ.Lmin [2]: 0.04196; AUC, modulator BJ.NAD+ [2]: 0.05735; AUC, modulator BJ.NMMA [2]: −0.03338; AUC, modulator BJ.Nec-1 [2]: 0.08176; AUC, modulator BJ.Pepstatin [2]: 0.1359; AUC, modulator BJ.TLCK [2]: −0.06705"
